Key:
Androgen receptor = molecular target: T1, Androgen receptor (Homo sapiens, UniProt P10275); experiment: Antagonist activity at DHT-induced Androgen receptor in human LNCaP cells transfected with ARR2PB-eGFP incubated for 3 days; assay type: cell-based
T1 sequence (P10275 whole entry): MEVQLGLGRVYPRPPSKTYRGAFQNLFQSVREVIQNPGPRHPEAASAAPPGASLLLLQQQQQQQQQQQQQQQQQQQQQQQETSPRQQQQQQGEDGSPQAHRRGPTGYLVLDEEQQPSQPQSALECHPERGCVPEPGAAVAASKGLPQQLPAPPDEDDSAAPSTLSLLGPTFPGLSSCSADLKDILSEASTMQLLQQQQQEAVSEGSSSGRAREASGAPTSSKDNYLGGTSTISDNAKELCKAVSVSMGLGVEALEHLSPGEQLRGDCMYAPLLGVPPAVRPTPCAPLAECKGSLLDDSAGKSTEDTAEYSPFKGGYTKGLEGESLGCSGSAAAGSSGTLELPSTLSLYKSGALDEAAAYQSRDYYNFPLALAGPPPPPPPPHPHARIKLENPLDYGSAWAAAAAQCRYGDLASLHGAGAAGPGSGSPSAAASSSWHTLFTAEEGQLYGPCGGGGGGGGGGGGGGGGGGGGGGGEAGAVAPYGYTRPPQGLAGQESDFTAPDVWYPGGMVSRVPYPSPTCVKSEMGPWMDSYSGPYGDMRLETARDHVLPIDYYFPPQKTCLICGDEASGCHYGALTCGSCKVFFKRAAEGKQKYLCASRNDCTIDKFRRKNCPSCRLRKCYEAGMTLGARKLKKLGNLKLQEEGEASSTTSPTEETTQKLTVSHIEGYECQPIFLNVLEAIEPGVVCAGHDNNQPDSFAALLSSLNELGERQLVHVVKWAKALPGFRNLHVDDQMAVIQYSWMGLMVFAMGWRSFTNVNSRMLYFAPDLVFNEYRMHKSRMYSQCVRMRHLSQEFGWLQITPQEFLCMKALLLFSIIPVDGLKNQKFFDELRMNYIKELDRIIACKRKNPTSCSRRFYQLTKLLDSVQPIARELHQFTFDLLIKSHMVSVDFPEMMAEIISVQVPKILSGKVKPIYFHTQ

[1] = Apparent volume of distribution in Sprague-Dawley rat at 1 mg/kg, iv; assay type: ADME, organism-based; settings: in vivo, read-out: Vz
[2] = Clearance in Sprague-Dawley rat at 5 mg/kg, po; assay type: ADME, organism-based; settings: in vivo
[3] = Half life in Sprague-Dawley rat at 5 mg/kg, po; assay type: ADME, organism-based; settings: in vivo
GES1 = experiment: Antiproliferative activity against human GES1 cells incubated for 72 hrs by MTT assay; assay type: toxicity, cell-based; settings: ges1, 72 h, time 72 hrs
[4] = AUC (0 to t) in Sprague-Dawley rat at 5 mg/kg, po; assay type: ADME, organism-based; settings: in vivo
[5] = Apparent volume of distribution in Sprague-Dawley rat at 5 mg/kg, po; assay type: ADME, organism-based; settings: in vivo
[6] = Oral bioavailability in Sprague-Dawley rat at 5 mg/kg; assay type: ADME, organism-based; settings: in vivo
[7] = Cmax in Sprague-Dawley rat at 1 mg/kg, iv; assay type: ADME, organism-based; settings: in vivo
[8] = Half life in Sprague-Dawley rat at 1 mg/kg, iv; assay type: ADME, organism-based; settings: in vivo
[9] = Clearance in Sprague-Dawley rat at 1 mg/kg, iv; assay type: ADME, organism-based; settings: in vivo
[10] = Cmax in Sprague-Dawley rat at 5 mg/kg, po; assay type: ADME, organism-based; settings: in vivo
[11] = AUC (0 to t) in Sprague-Dawley rat at 1 mg/kg, iv; assay type: ADME, organism-based; settings: in vivo
[12] = Antiproliferative activity against human Chang liver cells incubated for 72 hrs by MTT assay; assay type: toxicity, cell-based
NIH3T3 = experiment: Antiproliferative activity against mouse NIH3T3 cells incubated for 72 hrs by MTT assay; assay type: toxicity, cell-based; settings: nih3t3, 72 h

## O=c1cc(C(F)(F)F)c2ccc(OCc3ccc(Br)cc3)cc2o1
Androgen receptor
  IC50: 590 nM

## CN(Cc1ccc(Cl)cc1)c1ccc2c(C(F)(F)F)cc(=O)oc2c1
[1]
  Vd: 27.8 L/kg
[2]
  CL/F: 68 mL/min/kg
[3]
  half-life: 11.8 h
GES1
  Activity: Non-Toxic
[4]
  AUC(0-t): 724 ng·h/mL
[5]
  Vz: 112.33 L/kg
[6]
  bioavailability: 19.3%
[7]
  Cmax: 809 ng/mL
[8]
  half-life: 19.8 h
[9]
  clearance: 16.3 mL/min/kg
[10]
  Cmax: 139 ng/mL
[11]
  AUC(0-t): 750 ng·h/mL
[12]
  Activity: Non-Toxic
NIH3T3
  Activity: Non-Toxic

## CCN(CC)c1cc2c(C(F)(F)F)cc(=O)oc2cc1OCc1ccc(Br)cc1
Androgen receptor
  IC50: > 10000 nM

## CCN(Cc1ccc(Cl)cc1)c1ccc2c(C(F)(F)F)cc(=O)oc2c1
Androgen receptor
  IC50: 78 nM

## O=c1cc(C(F)(F)F)c2cc(N3CCCC3)c(OCc3ccc(Br)cc3)cc2o1
Androgen receptor
  IC50: > 10000 nM

## O=c1cc(C(F)(F)F)c2ccc(NCc3cc(F)ccc3F)cc2o1
Androgen receptor
  IC50: 34 nM

## CN(Cc1cc(F)ccc1F)c1ccc2c(C(F)(F)F)cc(=O)oc2c1
Androgen receptor
  IC50: 170 nM

## Cc1ccc(CNc2ccc3c(C(F)(F)F)cc(=O)oc3c2)cc1F
Androgen receptor
  IC50: 73 nM

## N#Cc1ccc(CNc2ccc3c(C(F)(F)F)cc(=O)oc3c2)cc1
Androgen receptor
  IC50: 890 nM

## CN(Cc1ccc(Br)cc1)c1ccc2c(C(F)(F)F)cc(=O)oc2c1
Androgen receptor
  IC50: 97 nM

## CCN(Cc1ccc(Br)cc1)c1ccc2c(C(F)(F)F)cc(=O)oc2c1
Androgen receptor
  IC50: 100 nM

## O=c1cc(C(F)(F)F)c2ccc(NCc3ccc(OC(F)F)cc3)cc2o1
Androgen receptor
  IC50: 68 nM

## O=c1cc(C(F)(F)F)c2ccc(NCc3ccc(CO)cc3)cc2o1
Androgen receptor
  IC50: 92 nM

## O=c1cc(C(F)(F)F)c2ccc(NCc3cccc(Br)c3)cc2o1
Androgen receptor
  IC50: 110 nM
